Reference: paper PMC9798004 (Frontiers in Psychiatry, 2022)

Experiments:
MTNR1A = target: T1, MTNR1A (Homo sapiens, UniProt P48039); experiment: PathHunter β-arrestin assay; type: cell-based; conditions: screen, control agonist; CHO, 37C, 2HR
T1 construct: purchased Eurofins DiscoverX (PathHunter gpcrMAX)

CB1 = test system: CB1; design: method as in PMID 20599795; conditions: 10 nM, 15 min application; not recovered up to 5 h later; cited from earlier work
HRH2 = HRH2 (Homo sapiens, UniProt P25021); experiment: PathHunter β-arrestin assay; type: cell-based; conditions: control agonist
HRH4 = HRH4 (Homo sapiens, UniProt Q9H3N8); conditions: screen, control agonist; U20S, 37C, 4HR
OXTR = OXTR (Homo sapiens, UniProt P30559); experiment: PathHunter β-arrestin assay; type: cell-based; conditions: follow-up assays, control antagonist
LTB4R = target: T2, LTB4R (Homo sapiens, UniProt Q15722); experiment: PathHunter β-arrestin assay; type: cell-based; conditions: screen, control agonist; CHO, 37C, 2HR
T2 construct: purchased Eurofins DiscoverX (PathHunter gpcrMAX)

HCRTR2 = HCRTR2 (Homo sapiens, UniProt O43614); experiment: PathHunter β-arrestin assay; type: cell-based; conditions: follow-up assays, control antagonist
HCRTR1 = target: T3, HCRTR1 (Homo sapiens, UniProt O43613); experiment: PathHunter β-arrestin assay; type: cell-based; conditions: follow-up assays, control antagonist
T3 sequence (O43613 1-425): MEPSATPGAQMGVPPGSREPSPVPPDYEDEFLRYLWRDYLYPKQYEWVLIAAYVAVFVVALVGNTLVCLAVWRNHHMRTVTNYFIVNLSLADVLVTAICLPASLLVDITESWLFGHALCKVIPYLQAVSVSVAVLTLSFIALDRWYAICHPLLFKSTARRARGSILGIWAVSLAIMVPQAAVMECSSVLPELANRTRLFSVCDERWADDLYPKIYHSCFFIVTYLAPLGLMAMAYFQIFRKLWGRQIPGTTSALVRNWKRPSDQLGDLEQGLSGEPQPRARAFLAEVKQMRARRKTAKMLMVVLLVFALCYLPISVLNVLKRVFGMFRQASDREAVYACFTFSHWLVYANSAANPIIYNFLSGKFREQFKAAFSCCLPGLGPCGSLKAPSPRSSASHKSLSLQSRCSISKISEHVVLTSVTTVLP
Method: Follow up experiments were prioritized based on the difference between S/N and CoV. Targets with a >5-fold difference between S/N and CoV were investigated for their potential contribution to the AMB-FUBINACA toxidrome with 10-point concentration-response curves generated in technical replicate (range 1.5–30 μM) using the EC80 of the relevant agonist, where applicable in antagonist mode. Simultaneous agonist and antagonist curves were run in parallel to ensure reliability of the assay (see Supplementary Table 2), with both RC50 and signal to background aligning with historical averages, and Z' >0.5. RC50 was estimated using a four-parameter fit (CBIS Data Analysis Suite, ChemInnovation, San Diego, CA) on normalized data.

UTR2 = UTR2 (Homo sapiens, UniProt Q9UKP6); experiment: PathHunter β-arrestin assay; type: cell-based; conditions: follow-up assays, control antagonist
HTR1F = target: T4, HTR1F (Homo sapiens, UniProt P30939); experiment: PathHunter β-arrestin assay; type: cell-based; conditions: screen, control agonist; U20S, 37C, 2HR
T4 construct: purchased Eurofins DiscoverX (PathHunter gpcrMAX)

HTR1B = target: T5, HTR1B (Homo sapiens, UniProt P28222); experiment: PathHunter β-arrestin assay; type: cell-based; conditions: screen, control agonist; U20S, 37C, 2HR
T5 construct: purchased Eurofins DiscoverX (PathHunter gpcrMAX)

HTR1A = target: T6, HTR1A (Homo sapiens, UniProt P08908); experiment: PathHunter β-arrestin assay; type: cell-based; conditions: screen, control agonist; CHO, 37C, 2HR
T6 construct: purchased Eurofins DiscoverX (PathHunter gpcrMAX)

HTR1E = target: T7, HTR1E (Homo sapiens, UniProt P28566); experiment: PathHunter β-arrestin assay; type: cell-based; conditions: screen, control agonist; U20S, 37C, 2HR
T7 construct: purchased Eurofins DiscoverX (PathHunter gpcrMAX)

HTR2A = target: T8, HTR2A (Homo sapiens, UniProt P28223); experiment: PathHunter β-arrestin assay; type: cell-based; conditions: screen, control agonist; U20S, 37C, 2HR
T8 construct: purchased Eurofins DiscoverX (PathHunter gpcrMAX)

HTR5A = target: T9, HTR5A (Homo sapiens, UniProt P47898); experiment: PathHunter β-arrestin assay; type: cell-based; conditions: screen, control agonist; U20S, 37C, 2HR
T9 construct: purchased Eurofins DiscoverX (PathHunter gpcrMAX)

ADORA3 = target: T10, ADORA3 (Homo sapiens, UniProt P0DMS8); experiment: PathHunter β-arrestin assay; type: cell-based; conditions: follow-up assays, control antagonist
T10 construct: host or cells: CHO
T10 sequence (P0DMS8 whole entry): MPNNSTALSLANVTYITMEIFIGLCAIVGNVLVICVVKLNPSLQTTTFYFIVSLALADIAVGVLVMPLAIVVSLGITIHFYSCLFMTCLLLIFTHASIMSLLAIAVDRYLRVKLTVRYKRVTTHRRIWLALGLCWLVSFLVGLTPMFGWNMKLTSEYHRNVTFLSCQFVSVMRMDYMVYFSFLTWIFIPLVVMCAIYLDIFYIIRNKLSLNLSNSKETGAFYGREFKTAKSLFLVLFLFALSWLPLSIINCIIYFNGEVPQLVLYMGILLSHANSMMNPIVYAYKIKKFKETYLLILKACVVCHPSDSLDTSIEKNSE

Chain of HRH2 (P25021 whole entry): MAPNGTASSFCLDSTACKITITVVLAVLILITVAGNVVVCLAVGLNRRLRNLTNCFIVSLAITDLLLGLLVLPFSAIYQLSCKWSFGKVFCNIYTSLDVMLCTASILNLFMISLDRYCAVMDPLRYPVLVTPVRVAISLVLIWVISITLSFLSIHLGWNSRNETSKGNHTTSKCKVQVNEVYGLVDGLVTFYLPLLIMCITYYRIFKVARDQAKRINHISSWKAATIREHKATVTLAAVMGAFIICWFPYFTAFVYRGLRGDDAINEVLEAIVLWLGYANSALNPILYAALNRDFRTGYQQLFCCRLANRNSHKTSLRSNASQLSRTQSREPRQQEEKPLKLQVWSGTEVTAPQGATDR
Chain of UTR2 (Q9UKP6 whole entry): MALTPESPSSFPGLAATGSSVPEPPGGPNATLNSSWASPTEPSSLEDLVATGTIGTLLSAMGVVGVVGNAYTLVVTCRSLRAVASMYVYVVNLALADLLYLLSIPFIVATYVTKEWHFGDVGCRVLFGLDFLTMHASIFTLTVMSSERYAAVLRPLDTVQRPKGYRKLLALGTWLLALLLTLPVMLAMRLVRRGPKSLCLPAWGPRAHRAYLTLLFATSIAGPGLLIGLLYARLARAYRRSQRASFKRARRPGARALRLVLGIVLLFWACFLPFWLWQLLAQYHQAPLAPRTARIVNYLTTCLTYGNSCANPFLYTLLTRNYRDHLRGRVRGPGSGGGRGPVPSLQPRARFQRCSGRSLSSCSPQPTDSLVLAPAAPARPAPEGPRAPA
T9 sequence (P47898 whole entry): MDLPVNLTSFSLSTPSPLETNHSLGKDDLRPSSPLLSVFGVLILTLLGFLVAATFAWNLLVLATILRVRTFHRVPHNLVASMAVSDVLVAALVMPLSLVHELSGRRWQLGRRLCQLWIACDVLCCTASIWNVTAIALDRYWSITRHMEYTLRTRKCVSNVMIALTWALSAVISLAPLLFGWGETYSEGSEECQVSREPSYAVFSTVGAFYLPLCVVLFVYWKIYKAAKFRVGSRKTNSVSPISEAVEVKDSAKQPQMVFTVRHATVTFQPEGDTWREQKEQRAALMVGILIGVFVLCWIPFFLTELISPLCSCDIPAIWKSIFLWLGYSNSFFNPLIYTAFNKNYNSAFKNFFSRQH
T2 sequence (Q15722 whole entry): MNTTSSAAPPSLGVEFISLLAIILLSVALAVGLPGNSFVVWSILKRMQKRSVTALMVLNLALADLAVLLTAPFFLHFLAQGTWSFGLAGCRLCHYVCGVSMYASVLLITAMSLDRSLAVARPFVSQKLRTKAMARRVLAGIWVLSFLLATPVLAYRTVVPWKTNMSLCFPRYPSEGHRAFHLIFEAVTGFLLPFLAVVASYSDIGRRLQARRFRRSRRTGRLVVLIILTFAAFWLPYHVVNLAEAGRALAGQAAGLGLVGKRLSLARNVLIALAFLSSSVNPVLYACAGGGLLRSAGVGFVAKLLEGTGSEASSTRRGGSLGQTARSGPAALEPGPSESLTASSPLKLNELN
T6 sequence (P08908 whole entry): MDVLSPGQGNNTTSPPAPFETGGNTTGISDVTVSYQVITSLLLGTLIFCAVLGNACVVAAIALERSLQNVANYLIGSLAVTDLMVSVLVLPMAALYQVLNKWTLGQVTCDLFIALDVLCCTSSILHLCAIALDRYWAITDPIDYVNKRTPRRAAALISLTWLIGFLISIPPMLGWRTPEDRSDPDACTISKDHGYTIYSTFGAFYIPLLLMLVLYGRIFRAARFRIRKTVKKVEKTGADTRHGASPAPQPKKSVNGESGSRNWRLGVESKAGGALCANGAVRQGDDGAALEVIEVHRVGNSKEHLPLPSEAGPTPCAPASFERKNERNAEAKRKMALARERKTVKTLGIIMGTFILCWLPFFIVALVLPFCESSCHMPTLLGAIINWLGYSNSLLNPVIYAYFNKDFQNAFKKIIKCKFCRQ
Chain of OXTR (P30559 whole entry): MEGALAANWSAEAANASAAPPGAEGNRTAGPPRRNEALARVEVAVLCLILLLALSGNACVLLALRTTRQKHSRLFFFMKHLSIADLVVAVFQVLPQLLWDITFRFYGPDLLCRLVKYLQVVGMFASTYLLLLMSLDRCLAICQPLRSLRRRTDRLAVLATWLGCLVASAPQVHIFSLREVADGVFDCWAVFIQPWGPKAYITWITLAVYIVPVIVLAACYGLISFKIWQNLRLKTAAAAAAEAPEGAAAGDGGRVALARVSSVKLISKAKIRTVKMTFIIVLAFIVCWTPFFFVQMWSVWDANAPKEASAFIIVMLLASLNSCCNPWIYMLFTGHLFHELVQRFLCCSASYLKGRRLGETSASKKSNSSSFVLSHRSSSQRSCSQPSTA
Chain of HRH4 (Q9H3N8 whole entry): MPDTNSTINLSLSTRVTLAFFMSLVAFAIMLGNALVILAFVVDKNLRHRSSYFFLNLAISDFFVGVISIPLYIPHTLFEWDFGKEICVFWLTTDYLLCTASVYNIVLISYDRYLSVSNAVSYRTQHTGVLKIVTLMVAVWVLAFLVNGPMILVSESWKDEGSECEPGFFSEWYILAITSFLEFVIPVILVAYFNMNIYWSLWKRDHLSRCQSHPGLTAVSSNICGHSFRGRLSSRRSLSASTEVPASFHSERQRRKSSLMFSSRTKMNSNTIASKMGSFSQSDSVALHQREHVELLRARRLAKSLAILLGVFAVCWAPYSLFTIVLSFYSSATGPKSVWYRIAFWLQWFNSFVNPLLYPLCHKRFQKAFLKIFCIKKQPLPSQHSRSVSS
T4 sequence (P30939 whole entry): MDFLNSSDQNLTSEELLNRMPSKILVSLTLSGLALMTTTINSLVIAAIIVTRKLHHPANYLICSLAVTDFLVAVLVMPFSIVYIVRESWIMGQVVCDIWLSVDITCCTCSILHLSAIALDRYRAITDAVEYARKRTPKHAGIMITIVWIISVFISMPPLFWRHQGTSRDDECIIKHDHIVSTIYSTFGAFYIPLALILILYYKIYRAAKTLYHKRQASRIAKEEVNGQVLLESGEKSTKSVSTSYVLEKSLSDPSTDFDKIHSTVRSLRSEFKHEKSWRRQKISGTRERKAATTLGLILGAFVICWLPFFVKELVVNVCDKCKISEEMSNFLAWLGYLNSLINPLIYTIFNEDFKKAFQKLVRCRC
Chain of HCRTR2 (O43614 whole entry): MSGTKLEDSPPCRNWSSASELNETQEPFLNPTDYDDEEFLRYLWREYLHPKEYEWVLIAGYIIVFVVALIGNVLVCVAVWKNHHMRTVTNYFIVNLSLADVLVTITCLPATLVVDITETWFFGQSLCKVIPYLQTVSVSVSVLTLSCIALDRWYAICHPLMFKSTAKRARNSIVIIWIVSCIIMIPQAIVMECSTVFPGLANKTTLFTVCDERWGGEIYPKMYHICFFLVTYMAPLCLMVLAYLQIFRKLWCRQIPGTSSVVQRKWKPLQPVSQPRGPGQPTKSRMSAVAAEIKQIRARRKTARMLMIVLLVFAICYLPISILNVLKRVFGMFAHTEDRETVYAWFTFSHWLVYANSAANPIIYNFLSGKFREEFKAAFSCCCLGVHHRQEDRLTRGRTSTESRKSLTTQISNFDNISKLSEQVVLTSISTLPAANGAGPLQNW
T5 sequence (P28222 whole entry): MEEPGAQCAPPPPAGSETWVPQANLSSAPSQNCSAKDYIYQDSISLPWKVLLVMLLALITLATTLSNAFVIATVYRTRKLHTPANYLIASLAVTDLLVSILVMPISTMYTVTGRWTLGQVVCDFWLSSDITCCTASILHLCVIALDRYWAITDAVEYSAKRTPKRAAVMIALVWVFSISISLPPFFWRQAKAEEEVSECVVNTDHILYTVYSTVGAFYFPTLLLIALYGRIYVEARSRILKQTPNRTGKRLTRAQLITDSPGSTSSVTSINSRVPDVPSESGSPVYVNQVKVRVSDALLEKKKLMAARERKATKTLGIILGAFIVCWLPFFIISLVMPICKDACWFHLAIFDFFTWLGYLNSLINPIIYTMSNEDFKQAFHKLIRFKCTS
T8 sequence (P28223 whole entry, looked up): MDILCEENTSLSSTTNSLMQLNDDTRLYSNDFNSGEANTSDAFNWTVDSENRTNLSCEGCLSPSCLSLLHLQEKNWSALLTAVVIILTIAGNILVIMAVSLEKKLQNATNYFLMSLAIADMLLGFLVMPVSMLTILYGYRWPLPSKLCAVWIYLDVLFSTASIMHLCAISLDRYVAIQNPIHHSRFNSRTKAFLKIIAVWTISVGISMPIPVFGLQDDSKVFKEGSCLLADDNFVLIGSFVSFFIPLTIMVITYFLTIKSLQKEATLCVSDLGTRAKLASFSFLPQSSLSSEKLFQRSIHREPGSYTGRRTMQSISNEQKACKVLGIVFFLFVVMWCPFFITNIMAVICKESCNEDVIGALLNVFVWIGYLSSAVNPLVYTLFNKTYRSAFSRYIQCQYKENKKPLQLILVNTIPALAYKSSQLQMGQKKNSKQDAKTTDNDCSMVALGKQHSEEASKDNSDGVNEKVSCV

COc1ccc2[nH]c(I)c(CCNC(C)=O)c2c1 [2-Iodomelatonin]
EC80 (MTNR1A): 2.77 nM

CCCCCCC(C)(C)c1cc(O)c2c(c1)OC(C)(C)[C@@H]1CC=C(CO)C[C@@H]21 [HU210]
CB1 internalization (CB1): near maximal internalization

NCCc1c[nH]cn1 [Histamine]
EC80 (HRH2; follow-up concentration-response assays): 10722 nM | EC80 (HRH2; screen, CHO, RT, 2HR): 10700 nM | EC80 (HRH4): 102 nM

Cc1ccccc1N1CCN(S(=O)(=O)C[C@]23CC[C@H](C[C@@H]2NC(=O)[C@@H](N)CCS(C)(=O)=O)C3(C)C)CC1 [L-368,899]
IC50 (OXTR): 7.39 nM

CCCCC/C=C\C[C@@H](O)/C=C/C=C/C=C\[C@@H](O)CCCC(=O)O [Leukotriene B4]
EC80 (LTB4R): 456 nM

Cc1cc(NC(=O)Nc2ccc(N(C)C)cc2)c2cc(F)cc(F)c2n1 [SB 408124]
IC50 (HCRTR2): 11500 nM | IC50 (HCRTR1): 74.4 nM

COc1cc(Br)c(S(=O)(=O)Nc2ccc(Cl)c(O[C@@H]3CCN(C)C3)c2)cc1OC [SB 657510]
IC50 (UTR2): 122 nM

NCCc1c[nH]c2ccc(O)cc12 [Serotonin / 5-HT, Serotonin]
EC80 (HTR1F): 127 nM | EC80 (HTR1B): 173 nM | EC80 (HTR1A): 377 nM | EC80 (HTR1E): 21.6 nM | EC80 (HTR2A): 171 nM | EC80 (HTR5A): 26.4 nM

COc1ccccc1NC(=O)Nc1nc(-c2cccnc2)nc2ccccc12 [VUF 5574]
IC50 (ADORA3): 3.73 nM
